Measurements reported in article PMC10254306, “Piplartine-Inspired 3,4,5-Trimethoxycinnamates: Trypanocidal, Mechanism of Action, and In Silico Evaluation” (Molecules, 2023).
“And” between values parts separate entries of the source, which are not always exact repeats. Equal values may be shown once.

How the values were obtained:
[1] = tested on: epimastigote forms of T. cruzi; assay: Scanning electron microscopy of morphological changes; type: cell-based, Trypanosoma cruzi; conditions: 24 h of treatment, 157 µM
Description: In addition, scanning electron microscopy was used to analyze possible morphological alterations of epimastigote forms treated with compound 11. […] Similar results were obtained by treating epimastigote forms with pentyl p-coumarate.
To evaluate the changes induced by 11 in the ultrastructure of T. cruzi, the epimastigote forms were incubated with them for 24 h. After this period, the samples were centrifuged (5000 rpm; 10 min), the supernatant discarded, and the pellet resuspended in glutaraldehyde solution (2.5%) and incubated for 2 h. The fixed samples were again centrifuged and exposed to increasing concentrations of ethanol (30, 50, 70, 90, and 100%) for dehydration, followed by centrifugation (5000 rpm; 5 min). Finally, the cells were transferred to the surface of circular coverslips (15 mm) and dried in a CO2 oven. The coverslips were covered with a gold layer (20 nm thick) using the QT150 ES-Quorum Metallizer and analyzed in a Quanta 450 FEG-FEI scanning electron microscope to observe changes in the three-dimensional structure of the epimastigote forms of T. cruzi.

LLC-MK2 cells = assay: In vitro cytotoxicity, MTT assay; type: cell-based, Rhesus monkey
Description: (§1) The compounds were considered selective for the parasite when SI ≥ 10 [21]. The results are expressed in Table 2.
(§2) For the cytotoxicity analysis, the (3-[4,5-dimethylthiazol-2-yl]-2,5 diphenyl tetrazolium bromide) (MTT) assay was used, in which the LLC-MK2 cells were cultured in Dulbecco’s Modified Eagle Medium (DMEM), then exposed to the piplartine analogues at different concentrations (25–200 μg/mL) and incubated for 24 h at 37 °C. Then MTT was added, and the cells were incubated for 4 h, after which 10% sodium dodecyl sulfate was added. […] To calculate the relative cell viability, cells treated only with sterile phosphate-buffered saline were used as a negative control. The experiments were conducted in triplicates.

[2] = In vitro cytotoxicity, MTT assay; type: cell-based, Rhesus monkey; conditions: Rhesus monkey, LLC-MK2 renal epithelial cells; MTT, 24 h; read-out: LLCK-MK2 CC50
Description: as §1, §2

T. cruzi epimastigotes = assay: Mitochondrial transmembrane potential, rhodamine 123 flow cytometry; type: cell-based, Trypanosoma cruzi; conditions: 157 and 314 µM, 24 h
Description: In addition, the mitochondrial damage exerted by 11 on the parasite was evaluated through the mitochondrial transmembrane potential assay using the fluorescent dye rhodamine 123 (Rho 123).
Initially, 11 (157 and 314 µM) and epimastigote forms (10^6 cells/mL) were added in 24-well plates. After 24 h, the cells were centrifuged and washed with phosphate-buffered saline. Subsequently, the cells were resuspended in 100 µL of phosphate-buffered saline, and 5 µL of Rho123 solution (10 µg/mL) was added. Thus, the samples were incubated in the dark for 30 min, washed, and resuspended with phosphate-buffered saline (500 µL/tube) for analysis by flow cytometry. Results were evaluated by relative fluorescence intensity, calculated as described above.

[3] = tested on: trypomastigote forms of T. cruzi, Y strain; assay: Trypanocidal activity on trypomastigote forms (viability by counting); type: cell-based, Trypanosoma cruzi
Description: (§3) Initially, the prepared esters were submitted to in vitro tests using the microdilution technique in 96-well plates to evaluate the trypanocidal activity against the epimastigote evolutionary form at different concentrations (200–3.12 μg/mL). Then, the compounds with the best activity were tested against the trypomastigote form of T. cruzi. In both assays, IC50 values were calculated; a compound is considered to have trypanocidal activity when IC50 <40 μM [21]. The results are expressed in Table 1.
Trypomastigote forms were obtained by infecting LLC-MK2 cells with the parasite; in this way, the cells were incubated for 24 h in T-25/75 cm^2 flasks at 37 °C in an atmosphere with 5% CO2 in DMEM medium supplemented with 2% FBS and 1% antibiotic. Subsequently, the trypomastigote forms were distributed in 96-well plates treated with piplartine analogues at different concentrations (200; 100; 50; 25; 12.5; 6.25; 3.12 μg/mL) and incubated at 37 °C for 24 h. The assessment of cell viability was performed by counting, and the IC50 was defined.

[4] = tested on: epimastigote forms of T. cruzi; assay: Cell death profile, 7-AAD / annexin V-PE labeling; type: cell-based, Trypanosoma cruzi; conditions: 157 and 314 µM, 24 h
Description: Epimastigote forms were used to analyze the cell death profile through labeling with AxPE and 7-AAD. Initially, the cells were divided into four cell populations: viable cells—with a low level of labeling (7AAD−/AxPE−); necrotic cells—labeled with 7-AAD (7AAD+/AxPE−); apoptotic cells—labeled with annexin V-PE (7AAD−/AxPE+); and cells in late apoptosis—doubly labeled (7AAD+/AxPE+).
The cells were treated with 11 for 24 h at concentrations of 157 and 314 µM.
The epimastigote forms of T. cruzi were cultivated at a density of 10^6 cells/mL in the presence of 11 (157 and 314 µM) for 24 h in a stove. Then, the cells were transferred to cytometry tubes, centrifuged at 4000 RPM for 5 min and washed twice with phosphate-buffered saline and binding buffer (pH 7.4; a compound of HEPES solution 10 mM; NaCl 140 mM; and CaCl2 2.5 mm). After the last centrifugation, the pellet was resuspended in 100 µL binding buffer, 5 µL 7-AAD (0.5 mg/mL), and 5 µL Ax/PE. The procedure was performed using a commercial kit (Annexin V PE Apoptosis Detection Kit I, BD Biosciences) and following the manufacturer’s guidelines. After 15 min of incubation in the dark, 400 µL of binding buffer was added to each tube, and the cells were analyzed on the FACSCalibur (BD Biosciences). For each tube, a minimum of 10^4 cells were analyzed to quantify the percentage of unlabeled cells and were either singly or double labeled with 7-AAD and Ax/PE. For this, an argon laser (488 nm) was used to excite the fluorochromes. Ax/PE-labeled cells were read by the FL2 detector (563 to 606 nm, yellow fluorescence), while 7-AAD-labeled cells were read at 615 to 645 nm wavelength (red fluorescence, FL3 detector).

[5] = tested on: epimastigote forms of T. cruzi, Y strain; assay: Trypanocidal activity on epimastigote forms (growth inhibition, Neubauer chamber count); type: cell-based, Trypanosoma cruzi
Description: as §3
Initially, epimastigotes were cultured and distributed in 96-well plates at a density of 10^6 cells/mL in liver infusion tryptose medium supplemented with 10% fetal bovine serum (FBS) and 1% antibiotic. Then, the cells were treated with piplartine analogues at different concentrations and incubated at 28 °C for 24 h. To quantify the growth inhibition of the parasites, a Neubauer chamber was used, and the IC50 was defined.

[6] = tested on: epimastigote cells of T. cruzi; assay: Cytoplasmic reactive oxygen species, DCFH-DA flow cytometry; type: cell-based, Trypanosoma cruzi; conditions: 157 and 314 µM, 24 h
Description: To elucidate the mechanism of action of 11, the increase in the concentration of ROS inside epimastigote cells of T. cruzi was evaluated through fluorescent techniques using 2′,7′–dichlorofluorescein diacetate (DCFH-DA). The results are illustrated in Figure 2 and Figure 3.
The DCFH-DA assay was used to evaluate the increase in ROS concentration in the cytoplasm of epimastigote cells treated with 11. Initially, 10^6 epimastigote cells/mL were added to 24-well plates in the presence of 11 (157 μM and 314 µM). After 3 h, 10 µL of a solution of DCFH-DA (20 µM in DMSO) was added. After 24 h, the cells were centrifuged (2800 RPM for 7 min), washed, and resuspended in 500 µL of phosphate buffered saline for flow cytometer analysis. Thus, the level of labeling in each group was analyzed by the geometric mean of the fluorescence intensity, and the results were expressed as relative fluorescence intensity according to the following formula (Equation (1)): (1) Relative fluorescence=mTest/mControl mTEST = geometric mean of the interest group; mCONTROL = geometric mean of the control group.

[7] = tested on: trypomastigote forms of T. cruzi; parameters: method as in PMID 31775321; conditions: read-out: IC50 trypomastigote form; cited from earlier work
[8] = tested on: epimastigote form of T. cruzi; parameters: method as in PMID 31775321; conditions: cited from earlier work
[9] = Trypanosoma cruzi, Y strain, 24 h

SMILES	ultrastructural alterations by scanning electron microscopy [1]	toxicity on LLC-MK2 host cells (in words) (LLC-MK2 cells; highest concentration tested (200 μg/mL))	selectivity for the parasite (SI) (LLC-MK2 cells; parasite form not specified, conclusions)	CC50 at 24 h [2]	accumulation of rhodamine 123 (mitochondrial transmembrane potential) vs control (T. cruzi epimastigotes)	IC50 [3, 9]	Selectivity Index (SI) Trypomastigote ([3]; ratio CC50 (LLC-MK2) / IC50 trypomastigote)	apoptotic cells (7AAD−/AxPE+) vs control [4]	cells in late apoptosis (7AAD+/AxPE+) vs control [4]	percentage of necrotic cells (7AAD+/AxPE−) vs control [4]	percentage of viable cells (7AAD−/AxPE−) vs control [4]	IC50 [5, 9]	Selectivity Index (SI) Epimastigote ([5]; ratio CC50 (LLC-MK2) / IC50 epimastigote)	relative fluorescence DCFH-DA (cytoplasmic ROS) vs control [6]	IC50 [7]	IC50 [8]
COc1cc(/C=C/C(=O)OCc2ccco2)cc(OC)c1OC [Compound 11, (E)-furan-2-ylmethyl 3-(3,4,5-trimethoxyphenyl)acrylate]	pore formation and content leakage in the cytoplasm	did not show toxicity at the highest concentration tested	> 10	> 200 µg/mL and > 628 µM	reduction in the accumulation of rhodamine	15 µg/mL and 47 µM	>13.4	increase in apoptotic cells	increase in cells in late apoptosis	increase in the percentage of necrotic cells	reduction in the percentage of viable cells	8.98 µg/mL and 28.2 µM	>22.2	increase in relative fluorescence		
CCCCCOC(=O)/C=C/c1ccc(O)cc1 [pentyl p-coumarate]															61.6 µM	5.16 µM
